Experimental data: patent US20200172966A1 (YAMAGUCHI UNIVERSITY, priority 2015, published 2020)

Assay: incidence of side effect (hematologic toxicity) by single nucleotide polymorphism genotype in Japanese patients with colon cancer who had received irinotecan
Format: in vivo, human
Description: By using TaqMan SNP Assays Human (manufactured by Applied Biosystems, Inc.) and LightCycler (R) 480 Probe Master (manufactured by Roche Diagnostics, Inc.), Universal ProbeLibrary (manufactured by Roche Diagnostics, Inc.), and LightCycler 480 System II (manufactured by Roche Diagnostics, Inc.), 10 ng of genomic DNA was subjected to genotyping. After incubation at 95° C. for 10 min, the sample was subjected to PCR amplification with 55 cycles for rs1980576, rs2272761, and rs9425343, 45 cycles for rs12577167, rs7265854, and rs1135640, or 40 cycles for rs1547 (1 cycle consisted of 92° C. for 15 sec and 60° C. for 60 sec). The fluorescence emitted from the PCR products were measured.
The “Odds ratio” in Table 3 refers to an odds ratio indicating the occurrence of a side effect as calculated using a Fisher's exact test on a single nucleotide polymorphism being homozygous for a wild-type or homozygous for a variant type.
The term (P value/C.-A.) in Table 4 is the same as in Table 2. […] The term “Odds ratio” in Table 5 is the same as in Table 3.

[1] = N = 72, homozygous UGT1A1*28 excluded (Table 5), ACOX1 rs1135640 G/G
[2] = N = 72, homozygous UGT1A1*28 excluded, ACOX1 rs1135640 C/C, C/G
[3] = N = 72, homozygous UGT1A1*28 excluded, APCDD1L rs1980576 A/A
[4] = N = 72, homozygous UGT1A1*28 excluded, APCDD1L rs1980576 A/A, A/G
[5] = N = 72, homozygous UGT1A1*28 excluded, APCDD1L rs1980576 A/G, G/G
[6] = N = 72, homozygous UGT1A1*28 excluded, APCDD1L rs1980576 G/G
[7] = N = 72, homozygous UGT1A1*28 excluded, APCDD1L rs7265854 C/C
[8] = N = 72, homozygous UGT1A1*28 excluded, APCDD1L rs7265854 T/T, T/C
[9] = N = 72, homozygous UGT1A1*28 excluded, EDEM3 rs9425343 T/G, G/G
[10] = N = 72, homozygous UGT1A1*28 excluded, EDEM3 rs9425343 T/T
[11] = N = 72, homozygous UGT1A1*28 excluded, R3HCC1 rs2272761 G/A, A/A
[12] = N = 72, homozygous UGT1A1*28 excluded, R3HCC1 rs2272761 G/G
[13] = N = 72, homozygous UGT1A1*28 with reduced amount of irinotecan excluded (Table 4), ACOX1 rs1135640 C/C
[14] = N = 72, homozygous UGT1A1*28 with reduced amount of irinotecan excluded (Table 4), ACOX1 rs1135640 C/G
[15] = N = 72, homozygous UGT1A1*28 with reduced amount of irinotecan excluded (Table 4), ACOX1 rs1135640 G/G
[16] = N = 73, homozygous UGT1A1*28 with reduced amount of irinotecan excluded, APCDD1L rs1980576 A/A
[17] = N = 73, homozygous UGT1A1*28 with reduced amount of irinotecan excluded, APCDD1L rs1980576 A/G
[18] = N = 73, homozygous UGT1A1*28 with reduced amount of irinotecan excluded, APCDD1L rs1980576 G/G
[19] = N = 73, homozygous UGT1A1*28 with reduced amount of irinotecan excluded, APCDD1L rs7265854 A/A
[20] = N = 73, homozygous UGT1A1*28 with reduced amount of irinotecan excluded, APCDD1L rs7265854 A/G
[21] = N = 73, homozygous UGT1A1*28 with reduced amount of irinotecan excluded, APCDD1L rs7265854 G/G
[22] = N = 73, homozygous UGT1A1*28 with reduced amount of irinotecan excluded, CSMD2 rs474474 A/A
[23] = N = 73, homozygous UGT1A1*28 with reduced amount of irinotecan excluded, CSMD2 rs474474 A/G
[24] = N = 73, homozygous UGT1A1*28 with reduced amount of irinotecan excluded, CSMD2 rs474474 G/G
[25] = N = 73, homozygous UGT1A1*28 with reduced amount of irinotecan excluded, EDEM3 rs9425343 G/G
[26] = N = 73, homozygous UGT1A1*28 with reduced amount of irinotecan excluded, EDEM3 rs9425343 T/G
[27] = N = 73, homozygous UGT1A1*28 with reduced amount of irinotecan excluded, EDEM3 rs9425343 T/T
[28] = N = 73, homozygous UGT1A1*28 with reduced amount of irinotecan excluded, GATA2 rs2335052 A/A
[29] = N = 73, homozygous UGT1A1*28 with reduced amount of irinotecan excluded, GATA2 rs2335052 G/A
[30] = N = 73, homozygous UGT1A1*28 with reduced amount of irinotecan excluded, GATA2 rs2335052 G/G
[31] = N = 73, homozygous UGT1A1*28 with reduced amount of irinotecan excluded, MKKS rs1547 C/C
[32] = N = 73, homozygous UGT1A1*28 with reduced amount of irinotecan excluded, MKKS rs1547 C/T
[33] = N = 73, homozygous UGT1A1*28 with reduced amount of irinotecan excluded, MKKS rs1547 T/T
[34] = N = 73, homozygous UGT1A1*28 with reduced amount of irinotecan excluded, OR51I2 rs12577167 A/A
[35] = N = 73, homozygous UGT1A1*28 with reduced amount of irinotecan excluded, OR51I2 rs12577167 A/G
[36] = N = 73, homozygous UGT1A1*28 with reduced amount of irinotecan excluded, OR51I2 rs12577167 G/G
[37] = N = 73, homozygous UGT1A1*28 with reduced amount of irinotecan excluded, R3HCC1 rs2272761 A/A
[38] = N = 73, homozygous UGT1A1*28 with reduced amount of irinotecan excluded, R3HCC1 rs2272761 G/A
[39] = N = 73, homozygous UGT1A1*28 with reduced amount of irinotecan excluded, R3HCC1 rs2272761 G/G

CCc1c2c(nc3ccc(OC(=O)N4CCC(N5CCCCC5)CC4)cc13)-c1cc3c(c(=O)n1C2)COC(=O)[C@]3(O)CC [irinotecan, 1,4′-Bipiperidine-1′-carboxylic acid (S)-4,11-diethyl-3,4,12,14-tetrahydro-4-hydroxy-3,14-dioxo-1H-pyrano[3′,4′:6,7]indolizino[1,2-b]quinolin-9-yl ester]
Toxicity No [1]: 21
Toxicity Yes [1]: 8
Toxicity No [2]: 17
Toxicity Yes [2]: 26
Toxicity No [3]: 16
Toxicity Yes [3]: 6
Toxicity No [4]: 35
Toxicity Yes [4]: 26
Toxicity No [5]: 22
Toxicity Yes [5]: 28
Toxicity No [6]: 3
Toxicity Yes [6]: 8
Toxicity No [7]: 8
Toxicity Yes [7]: 1
Toxicity No [8]: 30
Toxicity Yes [8]: 33
Toxicity No [9]: 31
Toxicity Yes [9]: 21
Toxicity No [10]: 7
Toxicity Yes [10]: 13
Toxicity No [11]: 32
Toxicity Yes [11]: 34
Toxicity No [12]: 6
Toxicity Yes [12]: 0
Toxicity No [13]: 3
Toxicity Yes [13]: 8
Toxicity No [14]: 14
Toxicity Yes [14]: 18
Toxicity No [15]: 21
Toxicity Yes [15]: 8
Toxicity No [16]: 16
Toxicity Yes [16]: 6
Toxicity No [17]: 20
Toxicity Yes [17]: 20
Toxicity No [18]: 3
Toxicity Yes [18]: 8
Toxicity No [19]: 13
Toxicity Yes [19]: 18
Toxicity No [20]: 18
Toxicity Yes [20]: 15
Toxicity No [21]: 8
Toxicity Yes [21]: 1
Toxicity No [22]: 16
Toxicity Yes [22]: 22
Toxicity No [23]: 18
Toxicity Yes [23]: 8
Toxicity No [24]: 5
Toxicity Yes [24]: 4
Toxicity No [25]: 10
Toxicity Yes [25]: 5
Toxicity No [26]: 21
Toxicity Yes [26]: 16
Toxicity No [27]: 8
Toxicity Yes [27]: 13
Toxicity No [28]: 5
Toxicity Yes [28]: 5
Toxicity No [29]: 20
Toxicity Yes [29]: 12
Toxicity No [30]: 14
Toxicity Yes [30]: 17
Toxicity No [31]: 20
Toxicity Yes [31]: 10
Toxicity No [32]: 16
Toxicity Yes [32]: 19
Toxicity No [33]: 3
Toxicity Yes [33]: 5
Toxicity No [34]: 19
Toxicity Yes [34]: 23
Toxicity No [35]: 14
Toxicity Yes [35]: 10
Toxicity No [36]: 6
Toxicity Yes [36]: 1
Toxicity No [37]: 22
Toxicity Yes [37]: 24
Toxicity No [38]: 11
Toxicity Yes [38]: 10
Toxicity No [39]: 6
Toxicity Yes [39]: 0
irinotecan side effect observed (of 68 cases considered to have a low risk of a side effect in view of the UGT1A gene polymorphisms): 29 cases
